This note sets out measurements from patent publication EP2769722A1 (Ruprecht-Karls-Universität Heidelberg, priority 2013, dated 2014).

This experiment addresses T1, CA (Human immunodeficiency virus type 1 group M subtype B, UniProt P12493).
T1 construct: a fusion protein of CA with glutathione-S-transferase (CA-GST)
Description: AlphaScreen: inhibition of CAI-biotin peptide binding to CA-GST. Further details: species or system HIV-1. The following applies: inhibition of CAI binding to CA (CA-GST fusion); compounds screened at 0.5-100 µM; read-out: α screen IC50. As to the method:
The AlphaScreen experiments are performed using Perkin Elmer Enspire plate reader in white 96-well ProxiPlates and PBS supplemented with 0.05% Tween20, 2mM DTT, 2% DMSO. First, Streptavidin-coated Donor beads are used to capture the CAI-biotin peptide. In the other solution, a fusion protein of CA with glutathione-S-transferase (CA-GST) is mixed with GSH Acceptor beads. Both mixtures were incubated and then mixed together. To test the ability of prepared organic compounds to inhibit the CAI binding to CA, they are screened at concentrations between 0.5-100 µM and IC50 values are calculated from the influenced signals.
Upon illumination by laser at 680 nm, Donor beads containing the photosensitizer phthalocyanine convert ambient oxygen to an excited form of singlet oxygen ^1O2. Singlet oxygen can within its half-life of ∼ 4µs diffuse approximately 200 nm in solution. If an Acceptor bead is within that proximity, which is mostly upon CA:CAI interaction, energy is transferred from the singlet oxygen to thioxene derivates within the Acceptor and signal at 520 - 620 nm is emitted. […] Table 4: Synthesized and tested compounds

Structures can show the parent of a compound that is named as a salt.

Regarding `CC(=O)c1ccc(Nc2ccnc(-c3ccncc3)n2)cc1` [AMR-748, 1-(4-((2-(pyridin-4-yl)pyrimidin-4-yl)amino)phenyl)ethanone hydrochloride], the IC50 (usually the point on the concentration scale where inhibition reaches its midpoint) is more than 100 µM.
The value for `Fc1cc(Nc2ccnc(-c3cccnc3)n2)cc(F)c1F` [KP-351, N-(3,4,5-trifluorophenyl)-2-(pyridin-3-yl)pyrimidin-4-amine dihydrochloride] was 60 µM.
The value for `CCOC(=O)c1ccccc1Nc1ccnc(-c2cccnc2)n1` [KP-347, Ethyl 2-{[2-(pyridm-3-yl)pyrimidm-4-yl]amino}benzoate hydrochloride] was more than 100 µM.
The result for `CCOC(=O)c1ccc(Nc2ccnc(-c3cccnc3)n2)cc1` [AMR-722, ethyl4-((2-(pyridin-3-yl)pyrimidin-4-yl)amino)benzoate hydrochloride] reads 19 µM.
As for `COc1cc(Nc2cc(-c3cccnc3Cl)ncn2)cc(OC)c1OC` [KP-377, 6-(2-Chloropyridin-3-yl)-N-(3,4,5-trimethoxyphenyl)pyrimidin-4-amine hydrochloride], the IC50 is more than 100 µM.
Take `CCOC(=O)c1ccc(Nc2cc(-c3cccnc3Cl)ncn2)cc1` [KP-369, Ethyl 4-{[6-(2-chloropyridin-3-yl)pyrimidin-4-yl]amino}benzoate hydrochloride]: the IC50 is more than 100 µM.
The value for `CCOC(=O)c1ccc(Nc2ccnc(-c3cncc(Br)c3)n2)cc1` [KP-352, Ethyl 4-{[2-(5-bromopyridin-3-yl)pyrinudm-4-yl]amino}benzoate hydrochloride] was more than 100 µM.
The value for `Fc1ccc(Nc2ccnc(-c3cccnc3)n2)cc1F` [KP-343, N-(3,4-difluorophenyl)-2-(pyridin-3-yl)pyrimidin-4-amine dihydrochloride] was 38 µM.
